{"source": "patent US20250213596A1", "about": "“CANNABINOID-CONTAINING COMPOSITIONS” (BUZZELET DEVELOPMENT AND TECHNOLOGIES LTD., priority 2022, published 2025)", "assay": "Flowability / transfer of the product from vessel to vessel", "type": "physicochemical", "conditions": "as obtained, ambient temperature", "from_the_text": "As used herein, the term “flowable” with regard to a composition is intended to mean that a majority of particles of the composition have the ability to move freely relative to an inner surface of a vessel in which they are contained.\nPurified THC at 99% purity (dronabinol) was used.\nA product comprising 66% silica and 33% THC was formed. It felt dry and was free flowing. It transferred fully from one vessel to another.", "data": [{"smiles": "CCCCCc1cc(O)c2c(c1)OC(C)(C)[C@@H]1CCC(C)=C[C@@H]21", "note": "[dronabinol]", "values": [{"measurement": "flowability of the material (pourable / free flowing)", "value": "could not be poured out of its container"}]}]}
